Active and inactive are the calls of the source. No cut-off for these calls is given here.
Assays:
Bombyx mori [1] = test: Toxicity in third-instar larvae of Bombyx mori at 160 ug applied topically; assay type: organism-based; details: in vivo, topical_or_ocular
Bombyx mori [2] = test: Juvenile hormone like activity in third-instar larvae of Bombyx mori assessed as spun cocoons at fifth-instar at 5 to 160 ug applied topically; assay type: functional, organism-based
Bombyx mori [3] = test: Juvenile hormone like activity in third-instar larvae of Bombyx mori assessed as spun cocoons at fourth-instar at 5 to 160 ug applied topically; assay type: functional, organism-based
Bombyx mori [4] = test: Juvenile hormone like activity in fourth-instar larvae of Bombyx mori assessed as induction of precocious metamorphosis at 40 ug/larvae applied topically in presence of 1 ug of methoprene; assay type: functional
Bombyx mori [5] = test: Juvenile hormone like activity in fourth-instar larvae of Bombyx mori assessed as induction of precocious metamorphosis at 40 ug/larvae applied topically in presence of 0.5 ug of methoprene; assay type: functional
Bombyx mori [6] = test: Juvenile hormone like activity in fourth-instar larvae of Bombyx mori assessed as induction of precocious metamorphosis at 40 ug/larvae applied topically in presence of 0.1 ug of methoprene; assay type: functional
Bombyx mori [7] = test: Juvenile hormone like activity in fourth-instar larvae of Bombyx mori assessed as induction of precocious metamorphosis at 40 ug/larvae applied topically; assay type: functional
Bombyx mori [8] = test: Juvenile hormone like activity in fourth-instar larvae of Bombyx mori C146 x N137 assessed as induction of precocious metamorphosis applied topically; assay type: functional
Bombyx mori [9] = test: Juvenile hormone like activity in fourth-instar larvae of Bombyx mori C137 x N137 assessed as induction of precocious metamorphosis applied topically; assay type: functional
Bombyx mori [10] = test: Juvenile hormone like activity in fourth-instar larvae of Bombyx mori C146 x N137 assessed as induction of precocious metamorphosis at > 40 ug/larvae applied topically; assay type: functional
Bombyx mori [11] = test: Juvenile hormone like activity in fourth-instar larvae of Bombyx mori C137 x N137 assessed as induction of precocious metamorphosis at > 40 ug/larvae applied topically; assay type: functional
Bombyx mori [12] = test: Juvenile hormone like activity in fourth-instar larvae of Bombyx mori assessed as induction of precocious metamorphosis at 1 ug applied topically; assay type: functional
Bombyx mori [13] = test: Juvenile hormone like activity in fourth-instar larvae of Bombyx mori C137 x N137 assessed as induction of precocious metamorphosis at > 60 ug/larvae applied topically; assay type: functional

CC(C)n1cncc1-c1cccc(OCc2ccccc2)c1
Activity (Bombyx mori [1]): Toxic
Activity (Bombyx mori [2]): Active
Activity (Bombyx mori [3]): Active
Activity (Bombyx mori [4]): 0%
Activity (Bombyx mori [5]): 30%
Activity (Bombyx mori [6]): 70%
Activity (Bombyx mori [7]): 100%
ED50 (Bombyx mori [8]): 13.2 µg
ED50 (Bombyx mori [9]): 0.9 µg

CC(C)n1cncc1-c1cccc(Oc2ccccc2)c1
ED50 (Bombyx mori [8]): 53.3 µg
ED50 (Bombyx mori [9]): 21.6 µg

CC(C)Cn1cncc1-c1ccc(Oc2ccccc2)cc1
Activity (Bombyx mori [1]): Toxic
ED50 (Bombyx mori [9]): 55.5 µg

COc1cccc(COc2cccc(-c3cncn3C(C)C)c2)c1
Activity (Bombyx mori [10]): 25%
ED50 (Bombyx mori [8]): >40 µg

CCCCn1cncc1-c1cccc(OCc2ccccc2)c1
Activity (Bombyx mori [11]): 0%
ED50 (Bombyx mori [9]): 40 µg

CC(C)Cn1cncc1-c1cccc(Oc2ccccc2)c1
Activity (Bombyx mori [2]): Active
Activity (Bombyx mori [3]): Active
ED50 (Bombyx mori [9]): 14.7 µg

CCCCCCOc1cccc(-c2cncn2C(C)C)c1
Activity (Bombyx mori [10]): 35%
ED50 (Bombyx mori [8]): >40 µg

CC(C)n1cncc1-c1cccc(OCc2ccc(F)cc2)c1
ED50 (Bombyx mori [8]): >40 µg

COc1cccc(-c2cncn2C(C)C)c1
Activity (Bombyx mori [10]): 0%
ED50 (Bombyx mori [8]): >40 µg

CC(Oc1cccc(-c2cncn2C(C)C)c1)c1ccccc1 (stereo unspecified)
Activity (Bombyx mori [10]): 0%
ED50 (Bombyx mori [8]): >40 µg

CC(C)n1cncc1-c1cccc(OCc2cccc(Cl)c2)c1
Activity (Bombyx mori [10]): 5%
ED50 (Bombyx mori [8]): >40 µg

CC(C)n1cncc1-c1cccc(O)c1
Activity (Bombyx mori [11]): 0%
ED50 (Bombyx mori [9]): >40 µg

CC(C)Cn1cncc1-c1cccc(OCc2ccccc2)c1
ED50 (Bombyx mori [9]): 28 µg

CCn1cncc1-c1cccc(OCc2ccccc2)c1
ED50 (Bombyx mori [9]): 30.2 µg

CC(C)(C)Cn1cncc1-c1cccc(OCc2ccccc2)c1
Activity (Bombyx mori [11]): 0%
ED50 (Bombyx mori [9]): 40 µg

CCCn1cncc1-c1cccc(OCc2ccccc2)c1
ED50 (Bombyx mori [9]): 21.1 µg

CC(C)COc1cccc(-c2cncn2C(C)C)c1
Activity (Bombyx mori [10]): 35%
ED50 (Bombyx mori [8]): >40 µg

CC(C)n1cncc1-c1ccc(OCc2ccccc2)cc1
Activity (Bombyx mori [11]): 30%
ED50 (Bombyx mori [9]): 40 µg

c1ccc(COc2cccc(-c3cncn3Cc3ccccc3)c2)cc1
Activity (Bombyx mori [11]): 0%
ED50 (Bombyx mori [9]): 40 µg

CC(C)=CCC/C(C)=C/COc1cccc(-c2cncn2CC(C)C)c1
Activity (Bombyx mori [11]): 0%
ED50 (Bombyx mori [9]): >40 µg

COC(C)(C)CCC[C@H](C)C/C=C/C(C)=C/C(=O)OC(C)C [METHOPRENE]
Activity (Bombyx mori [12]): 0%

CC(C)n1cncc1-c1cccc(OCc2ccc(Cl)cc2)c1
Activity (Bombyx mori [10]): 20%
ED50 (Bombyx mori [8]): >40 µg

CC(C)n1cncc1-c1cccc(OCc2ccccc2Cl)c1
Activity (Bombyx mori [10]): 0%
ED50 (Bombyx mori [8]): >40 µg

CC(C)n1cncc1-c1cccc(OCCc2ccccc2)c1
Activity (Bombyx mori [10]): 20%
ED50 (Bombyx mori [8]): >40 µg

CC(C)=CCC/C(C)=C/COc1cccc(-c2cncn2C(C)C)c1
Activity (Bombyx mori [10]): 0%
ED50 (Bombyx mori [8]): >40 µg

Cn1cncc1-c1cccc(OCc2ccccc2)c1
Activity (Bombyx mori [13]): 0%
ED50 (Bombyx mori [9]): 60 µg

CCCCCCCCOc1cccc(-c2cncn2C(C)C)c1
Activity (Bombyx mori [10]): 25%
ED50 (Bombyx mori [8]): >40 µg

COc1ccc(COc2cccc(-c3cncn3C(C)C)c2)cc1
Activity (Bombyx mori [10]): 15%
ED50 (Bombyx mori [8]): >40 µg

CC(C)n1cncc1-c1ccccc1OCc1ccccc1
Activity (Bombyx mori [11]): 0%
ED50 (Bombyx mori [9]): 40 µg

— ChEMBL document CHEMBL3045242, “Synthesis and Insect Growth Regulatory Activity of 1,5-Disubstituted Imidazoles with Non-terpene Chains” (Agric Biol Chem, 1991)
